Organism: Rattus norvegicus
Experiment: DrugMatrix - Regimen: Daily Repeat
Assay type: toxicity, organism-based, Sprague-Dawley
Design: regimen Daily Repeat, gender Male, age 6-8 weeks
Conditions: in vivo, sc, route subcutaneous, […]; for ABSOLUTE BASOPHIL / ABSOLUTE EOSINOPHIL / ABSOLUTE LYMPHOCYTE / ABSOLUTE MONOCYTE / ABSOLUTE SEGMENTED NEUTROPHIL / BASOPHIL / EOSINOPHIL / ERYTHROCYTE COUNT / HEMATOCRIT / HEMOGLOBIN / LEUKOCYTE COUNT / LYMPHOCYTE / MEAN CORPUSCULAR HEMOGLOBIN / MEAN CORPUSCULAR HEMOGLOBIN CONCENTRATION / MEAN CORPUSCULAR VOLUME / MONOCYTE / NEUTROPHIL / NUCLEATED RED BLOOD CELLS / PLATELET COUNT: tissue Blood; for ALANINE AMINOTRANSFERASE / ALBUMIN / ALKALINE PHOSPHATASE / ASPARTATE AMINOTRANSFERASE / BLOOD UREA NITROGEN / CARBON DIOXIDE / CHLORIDE / CHOLESTEROL / CREATINE PHOSPHOKINASE / CREATININE / GLUCOSE / LACTATE DEHYDROGENASE / LIPASE / PHOSPHORUS / POTASSIUM / SODIUM / TOTAL BILIRUBIN / TOTAL PROTEIN / URIC ACID: tissue Plasma
[1] = 0 mg/kg, 72 h, dose level Control, time 3 day
[2] = 0 mg/kg, 120 h, dose level Control, time 5 day
[3] = 14 mg/kg, 72 h, dose level Low, time 3 day

CCN(CC)CCOCCC1=CCC2CC1C2(C)C (centres undefined) [MYRTECAINE]
ABSOLUTE BASOPHIL [1]: 0 CELLS/uL | ABSOLUTE EOSINOPHIL [1]: 0 CELLS/uL | ABSOLUTE LYMPHOCYTE [1]: 10887 CELLS/uL | ABSOLUTE MONOCYTE [1]: 56 CELLS/uL | ABSOLUTE SEGMENTED NEUTROPHIL [1]: 1057 CELLS/uL | BASOPHIL [1]: 0% | EOSINOPHIL [1]: 0% | ERYTHROCYTE COUNT [1]: 5.31 x10E6/uL | HEMATOCRIT [1]: 33.78% | HEMOGLOBIN [1]: 13.4 G/DL | LEUKOCYTE COUNT [1]: 12 x10E3/uL | LYMPHOCYTE [1]: 91.17% | MEAN CORPUSCULAR HEMOGLOBIN [1]: 25.25 pg | MEAN CORPUSCULAR HEMOGLOBIN CONCENTRATION [1]: 39.65 G/DL | MEAN CORPUSCULAR VOLUME [1]: 63.65 fL | MONOCYTE [1]: 0.5% | NEUTROPHIL [1]: 8.33% | NUCLEATED RED BLOOD CELLS [1]: 0 /100WBC | PLATELET COUNT [1]: 1142 x10E3/uL | ALANINE AMINOTRANSFERASE [1]: 57.17 u/L | ALBUMIN [1]: 4.28 G/DL | ALKALINE PHOSPHATASE [1]: 425.83 u/L | ASPARTATE AMINOTRANSFERASE [1]: 93.83 u/L | BLOOD UREA NITROGEN [1]: 14.17 mg/dL | CARBON DIOXIDE [1]: 33.5 mmol/L | CHLORIDE [1]: 100 MEQ/L | CHOLESTEROL [1]: 70.33 mg/dL | CREATINE PHOSPHOKINASE [1]: 438.67 u/L | CREATININE [1]: 0.19 mg/dL | GLUCOSE [1]: 138.5 mg/dL | LACTATE DEHYDROGENASE [1]: 190.17 u/L | LIPASE [1]: 9.83 u/L | PHOSPHORUS [1]: 11.05 mg/dL | POTASSIUM [1]: 6.59 MEQ/L | SODIUM [1]: 143.58 MEQ/L | TOTAL BILIRUBIN [1]: 0.22 mg/dL | TOTAL PROTEIN [1]: 6.15 G/DL | URIC ACID [1]: 1.3 mg/dL | ABSOLUTE BASOPHIL [2]: 0 CELLS/uL | ABSOLUTE EOSINOPHIL [2]: 91.17 CELLS/uL | ABSOLUTE LYMPHOCYTE [2]: 11847.67 CELLS/uL | ABSOLUTE MONOCYTE [2]: 172.83 CELLS/uL | ABSOLUTE SEGMENTED NEUTROPHIL [2]: 1105 CELLS/uL | BASOPHIL [2]: 0% | EOSINOPHIL [2]: 0.67% | ERYTHROCYTE COUNT [2]: 5.35 x10E6/uL | HEMATOCRIT [2]: 33.65% | HEMOGLOBIN [2]: 13.42 G/DL | LEUKOCYTE COUNT [2]: 13.22 x10E3/uL | LYMPHOCYTE [2]: 89.83% | MEAN CORPUSCULAR HEMOGLOBIN [2]: 25.12 pg | MEAN CORPUSCULAR HEMOGLOBIN CONCENTRATION [2]: 39.9 G/DL | MEAN CORPUSCULAR VOLUME [2]: 63 fL | MONOCYTE [2]: 1.33% | NEUTROPHIL [2]: 8.17% | NUCLEATED RED BLOOD CELLS [2]: 0 /100WBC | PLATELET COUNT [2]: 1347.83 x10E3/uL | ALANINE AMINOTRANSFERASE [2]: 50 u/L | ALBUMIN [2]: 4.1 G/DL | ALKALINE PHOSPHATASE [2]: 329.17 u/L | ASPARTATE AMINOTRANSFERASE [2]: 77.17 u/L | BLOOD UREA NITROGEN [2]: 16.83 mg/dL | CARBON DIOXIDE [2]: 34.83 mmol/L | CHLORIDE [2]: 99.83 MEQ/L | CHOLESTEROL [2]: 75.67 mg/dL | CREATINE PHOSPHOKINASE [2]: 295.83 u/L | CREATININE [2]: 0.18 mg/dL | GLUCOSE [2]: 156.33 mg/dL | LACTATE DEHYDROGENASE [2]: 166.83 u/L | LIPASE [2]: 9.83 u/L | PHOSPHORUS [2]: 12.18 mg/dL | POTASSIUM [2]: 6.69 MEQ/L | SODIUM [2]: 143.97 MEQ/L | TOTAL BILIRUBIN [2]: 0.22 mg/dL | TOTAL PROTEIN [2]: 6.05 G/DL | URIC ACID [2]: 1.6 mg/dL | ABSOLUTE BASOPHIL [3]: 0 CELLS/uL | ABSOLUTE EOSINOPHIL [3]: 0 CELLS/uL | ABSOLUTE LYMPHOCYTE [3]: 10822.33 CELLS/uL | ABSOLUTE MONOCYTE [3]: 0 CELLS/uL | ABSOLUTE SEGMENTED NEUTROPHIL [3]: 1344.33 CELLS/uL | BASOPHIL [3]: 0% | EOSINOPHIL [3]: 0% | ERYTHROCYTE COUNT [3]: 5.32 x10E6/uL | HEMATOCRIT [3]: 33.73% | HEMOGLOBIN [3]: 13.37 G/DL | LEUKOCYTE COUNT [3]: 12.17 x10E3/uL | LYMPHOCYTE [3]: 89% | MEAN CORPUSCULAR HEMOGLOBIN [3]: 25.13 pg | MEAN CORPUSCULAR HEMOGLOBIN CONCENTRATION [3]: 39.6 G/DL | MEAN CORPUSCULAR VOLUME [3]: 63.4 fL | MONOCYTE [3]: 0% | NEUTROPHIL [3]: 11% | NUCLEATED RED BLOOD CELLS [3]: 0 /100WBC | PLATELET COUNT [3]: 1197.33 x10E3/uL | ALANINE AMINOTRANSFERASE [3]: 47.67 u/L | ALBUMIN [3]: 4.13 G/DL | ALKALINE PHOSPHATASE [3]: 420 u/L | ASPARTATE AMINOTRANSFERASE [3]: 80.67 u/L | BLOOD UREA NITROGEN [3]: 13.67 mg/dL | CARBON DIOXIDE [3]: 25.67 mmol/L | CHLORIDE [3]: 103.67 MEQ/L | CHOLESTEROL [3]: 75.67 mg/dL | CREATINE PHOSPHOKINASE [3]: 200.33 u/L | CREATININE [3]: 0.16 mg/dL | GLUCOSE [3]: 152.33 mg/dL | LACTATE DEHYDROGENASE [3]: 214.67 u/L | LIPASE [3]: 9 u/L | PHOSPHORUS [3]: 14.03 mg/dL | POTASSIUM [3]: 6.82 MEQ/L | SODIUM [3]: 146.53 MEQ/L | TOTAL BILIRUBIN [3]: 0.17 mg/dL | TOTAL PROTEIN [3]: 5.97 G/DL | URIC ACID [3]: 1.5 mg/dL

From ChEMBL document CHEMBL3885881, “DrugMatrix”
